# Measurements taken from paper PMC11410943 (Nature Communications, 2024).
# Where two headings read alike, the source gives them in different places.
# Legend:
# Pseudomonas aeruginosa = assay: MIC; settings: for MIC: Pseudomonas aeruginosa
# [1] = test system: Stenotrophomonas maltophilia; assay: MIC; settings: IHMA/CARB-X MDR clinical isolates 2019, N=150
# hERG = hERG (Homo sapiens, UniProt Q12809); assay: hERG manual patch-clamp; type: cell-based
# [2] = test system: diverse Gram-negative pathogens
# Dog cardiovascular study = type: in vivo
# [3] = target: bile salt export pump (BSEP) (Homo sapiens, UniProt O95342); assay: BSEP inhibition and substrate determination; type: in vitro ADME; settings: up to 50 µM
# Chain of bile salt export pump (BSEP) (O95342 whole entry, species assumed): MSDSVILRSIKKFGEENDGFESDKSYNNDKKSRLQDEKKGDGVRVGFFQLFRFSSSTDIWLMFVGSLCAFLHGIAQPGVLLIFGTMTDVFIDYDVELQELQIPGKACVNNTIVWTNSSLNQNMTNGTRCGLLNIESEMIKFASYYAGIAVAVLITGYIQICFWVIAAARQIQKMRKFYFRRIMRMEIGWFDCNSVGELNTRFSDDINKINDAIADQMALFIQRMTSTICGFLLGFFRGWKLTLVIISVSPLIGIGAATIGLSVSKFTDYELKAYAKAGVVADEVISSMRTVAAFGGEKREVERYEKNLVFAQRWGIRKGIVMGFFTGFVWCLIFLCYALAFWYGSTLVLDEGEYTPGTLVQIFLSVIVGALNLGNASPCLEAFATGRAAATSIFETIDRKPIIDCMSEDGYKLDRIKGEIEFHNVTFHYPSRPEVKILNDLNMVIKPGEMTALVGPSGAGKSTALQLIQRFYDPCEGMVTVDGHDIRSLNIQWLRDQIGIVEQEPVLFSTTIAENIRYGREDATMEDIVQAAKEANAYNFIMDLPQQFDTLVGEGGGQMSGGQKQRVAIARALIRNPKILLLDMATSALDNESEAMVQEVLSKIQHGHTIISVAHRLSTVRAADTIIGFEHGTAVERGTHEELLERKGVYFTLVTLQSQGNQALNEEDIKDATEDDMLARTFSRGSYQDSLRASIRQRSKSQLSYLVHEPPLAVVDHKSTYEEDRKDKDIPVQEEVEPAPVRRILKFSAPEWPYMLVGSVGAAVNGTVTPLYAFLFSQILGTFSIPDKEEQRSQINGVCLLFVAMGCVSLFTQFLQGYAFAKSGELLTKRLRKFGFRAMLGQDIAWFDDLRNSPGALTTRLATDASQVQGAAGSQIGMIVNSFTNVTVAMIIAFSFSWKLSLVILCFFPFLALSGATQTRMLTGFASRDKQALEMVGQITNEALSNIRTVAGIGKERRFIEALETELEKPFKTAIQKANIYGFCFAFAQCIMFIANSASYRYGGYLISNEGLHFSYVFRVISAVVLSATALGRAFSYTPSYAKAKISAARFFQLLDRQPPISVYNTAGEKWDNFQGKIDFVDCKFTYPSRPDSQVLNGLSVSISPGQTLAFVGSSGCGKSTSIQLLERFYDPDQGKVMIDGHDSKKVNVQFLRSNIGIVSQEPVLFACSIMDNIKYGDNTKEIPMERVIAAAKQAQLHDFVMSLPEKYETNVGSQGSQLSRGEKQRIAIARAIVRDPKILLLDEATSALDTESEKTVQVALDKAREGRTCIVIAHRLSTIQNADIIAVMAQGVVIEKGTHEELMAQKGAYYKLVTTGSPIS
# Morganella morganii = assay: MIC; settings: IHMA/CARB-X MDR clinical isolates 2019, N=42
# Citrobacter spp. = assay: MIC; settings: IHMA/CARB-X MDR clinical isolates 2019, N=151
# [4] = Hepatocyte stability / intrinsic clearance; type: in vitro ADME, dog
# [5] = Prediction of human PK by allometry / 2-compartment model; settings: 70 kg
# K. pneumoniae [6] = assay: Neutropenic mouse; type: in vivo; settings: SC every 8 h, wild-type and MDR isolates
# [7] = Hepatocyte stability / intrinsic clearance; type: in vitro ADME, human
# [8] = Hepatocyte stability / intrinsic clearance; type: in vitro ADME, monkey
# Acinetobacter baumannii = assay: MIC; settings: Acinetobacter baumannii
# Escherichia coli = assay: MIC
# Proteus spp. = assay: MIC; settings: IHMA/CARB-X MDR clinical isolates 2019, N=152
# [9] = test system: AChE, MAO-B, Adrenergic α1 A, 5-HT1A; assay: Cerep-88 secondary pharmacology screen
# P. aeruginosa [10] = assay: Killing kinetics assay; type: cell-based; settings: 0.5X to 16X MIC, susceptible and MDR strains
# P. aeruginosa [11] = assay: Neutropenic rat lung infection model; settings: IV infusion, MDR isolates
# K. pneumoniae [12] = assay: Neutropenic rat lung infection model; settings: IV infusion, MDR isolates
# [13] = Bile duct cannulation / excretion study in rats; type: in vivo, Sprague-Dawley rats
# [14] = target: acetylcholine esterase (AChE) (Homo sapiens, UniProt P22303); assay: AChE inhibition, reversibility on dilution; type: biochemical; settings: 30 μM, 100-fold dilution to 0.3 μM, excess AChE
# Chain of acetylcholine esterase (AChE) (P22303 32-614): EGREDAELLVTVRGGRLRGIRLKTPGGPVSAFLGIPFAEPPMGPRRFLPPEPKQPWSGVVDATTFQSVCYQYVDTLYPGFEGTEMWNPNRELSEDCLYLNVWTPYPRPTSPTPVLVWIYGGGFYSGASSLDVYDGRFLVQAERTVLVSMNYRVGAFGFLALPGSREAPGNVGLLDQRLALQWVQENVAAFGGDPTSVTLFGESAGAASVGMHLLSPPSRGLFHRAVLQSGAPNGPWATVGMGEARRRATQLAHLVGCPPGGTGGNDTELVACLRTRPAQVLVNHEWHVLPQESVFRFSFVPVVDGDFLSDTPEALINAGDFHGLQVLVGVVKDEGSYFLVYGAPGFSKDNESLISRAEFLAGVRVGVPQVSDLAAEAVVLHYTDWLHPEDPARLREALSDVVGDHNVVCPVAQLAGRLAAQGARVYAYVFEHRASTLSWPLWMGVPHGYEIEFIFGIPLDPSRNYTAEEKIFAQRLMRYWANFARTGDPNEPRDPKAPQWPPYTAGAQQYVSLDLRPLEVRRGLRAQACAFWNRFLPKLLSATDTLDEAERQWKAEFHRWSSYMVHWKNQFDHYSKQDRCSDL
# Enterococcus faecalis = assay: MIC; settings: read-out: median MIC
# [15] = First-in-human SAD study, PK; type: in vivo, healthy human volunteers; settings: for half-life: both, human, plasma, iv
# E. faecalis / E. faecium = assay: MIC
# [16] = Plasma protein binding, equilibrium dialysis; type: in vitro ADME, rats; settings: % bound
# [17] = test system: MDR Gram-negative and Gram-positive pathogens; assay: MIC
# P. aeruginosa [18] = assay: Neutropenic mouse; type: in vivo
# E. coli [19] = assay: Neutropenic mouse; type: in vivo; settings: SC every 8 h, wild-type and MDR isolates
# E. coli [20] = assay: Neutropenic rat lung infection model; type: in vivo; settings: IV infusion, MDR isolates
# A. baumannii [21] = settings: in vivo, iv
# [22] = First-in-human SAD study, safety and tolerability; type: in vivo, healthy human volunteers; settings: single IV infusion 120-1050 mg
# A. baumannii [23] = assay: Neutropenic mouse; type: in vivo; settings: SC every 8 h, wild-type and MDR isolates
# P-glycoprotein (P-gp) = P-glycoprotein (P-gp) (Homo sapiens, UniProt P08183); assay: P-gp substrate determination; type: in vitro ADME
# Chain of P-glycoprotein (P-gp) (P08183 whole entry): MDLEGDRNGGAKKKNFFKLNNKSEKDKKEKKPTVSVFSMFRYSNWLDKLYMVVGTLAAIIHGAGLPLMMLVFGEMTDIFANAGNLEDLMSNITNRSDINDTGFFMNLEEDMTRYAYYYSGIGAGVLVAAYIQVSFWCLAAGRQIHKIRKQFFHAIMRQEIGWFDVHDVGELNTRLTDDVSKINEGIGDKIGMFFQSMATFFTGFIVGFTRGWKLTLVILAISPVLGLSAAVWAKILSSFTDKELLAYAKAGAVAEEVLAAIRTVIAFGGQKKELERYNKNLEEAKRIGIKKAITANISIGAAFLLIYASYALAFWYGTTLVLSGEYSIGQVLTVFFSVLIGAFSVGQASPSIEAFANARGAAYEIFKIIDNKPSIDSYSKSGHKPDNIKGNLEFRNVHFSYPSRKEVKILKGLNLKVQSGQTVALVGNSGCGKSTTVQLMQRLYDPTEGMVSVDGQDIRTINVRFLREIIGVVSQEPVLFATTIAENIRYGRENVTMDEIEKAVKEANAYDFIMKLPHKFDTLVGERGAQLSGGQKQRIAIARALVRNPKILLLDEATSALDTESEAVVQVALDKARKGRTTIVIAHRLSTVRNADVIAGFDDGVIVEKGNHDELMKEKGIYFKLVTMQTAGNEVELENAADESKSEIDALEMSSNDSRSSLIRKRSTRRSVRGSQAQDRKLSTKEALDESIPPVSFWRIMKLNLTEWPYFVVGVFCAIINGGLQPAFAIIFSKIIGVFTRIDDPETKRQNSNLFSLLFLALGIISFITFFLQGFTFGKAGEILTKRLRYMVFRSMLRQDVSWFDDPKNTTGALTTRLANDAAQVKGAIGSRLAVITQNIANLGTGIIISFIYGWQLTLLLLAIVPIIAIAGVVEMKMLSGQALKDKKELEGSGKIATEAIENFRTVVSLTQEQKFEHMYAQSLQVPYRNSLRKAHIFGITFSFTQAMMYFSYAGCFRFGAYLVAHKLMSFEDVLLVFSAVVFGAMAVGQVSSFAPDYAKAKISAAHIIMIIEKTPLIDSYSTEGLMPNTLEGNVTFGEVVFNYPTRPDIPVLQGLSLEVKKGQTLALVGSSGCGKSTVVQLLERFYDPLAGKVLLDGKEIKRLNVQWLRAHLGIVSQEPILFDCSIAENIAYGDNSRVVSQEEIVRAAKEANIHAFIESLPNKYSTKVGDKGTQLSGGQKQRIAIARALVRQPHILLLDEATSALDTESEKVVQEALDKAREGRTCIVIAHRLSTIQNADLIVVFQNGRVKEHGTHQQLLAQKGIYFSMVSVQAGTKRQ
# MAD study C002-2023-01 = type: in vivo, healthy human volunteers; settings: 240 mg, two subjects
# CYP3A4 = CYP3A4 (Homo sapiens, UniProt P08684); assay: CYP reaction phenotyping; type: in vitro ADME
# Chain of CYP3A4 (P08684 whole entry): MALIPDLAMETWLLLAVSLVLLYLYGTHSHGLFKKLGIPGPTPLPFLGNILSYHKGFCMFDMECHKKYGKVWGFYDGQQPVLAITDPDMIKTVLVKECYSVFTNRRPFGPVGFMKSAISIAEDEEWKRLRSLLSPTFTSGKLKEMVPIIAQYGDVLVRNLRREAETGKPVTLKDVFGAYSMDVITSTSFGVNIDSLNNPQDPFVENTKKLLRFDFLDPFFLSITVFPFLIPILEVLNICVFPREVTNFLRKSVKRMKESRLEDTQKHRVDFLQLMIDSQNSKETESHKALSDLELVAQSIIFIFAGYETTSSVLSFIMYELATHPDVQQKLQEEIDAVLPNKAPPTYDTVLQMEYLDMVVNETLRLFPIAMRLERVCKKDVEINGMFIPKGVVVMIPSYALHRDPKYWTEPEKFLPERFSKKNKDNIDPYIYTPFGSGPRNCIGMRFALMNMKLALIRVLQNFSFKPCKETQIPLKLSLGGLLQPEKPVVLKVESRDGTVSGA
# Staphylococcus aureus = assay: MIC
# Klebsiella pneumoniae = assay: MIC
# Enterobacter cloacae = assay: MIC; settings: Enterobacter cloacae
# [24] = IHMA/CARB-X MDR clinical isolates 2019, N=300
# [25] = read-out: median MIC, panel of ATCC strains
# Chain of hERG (Q12809 whole entry): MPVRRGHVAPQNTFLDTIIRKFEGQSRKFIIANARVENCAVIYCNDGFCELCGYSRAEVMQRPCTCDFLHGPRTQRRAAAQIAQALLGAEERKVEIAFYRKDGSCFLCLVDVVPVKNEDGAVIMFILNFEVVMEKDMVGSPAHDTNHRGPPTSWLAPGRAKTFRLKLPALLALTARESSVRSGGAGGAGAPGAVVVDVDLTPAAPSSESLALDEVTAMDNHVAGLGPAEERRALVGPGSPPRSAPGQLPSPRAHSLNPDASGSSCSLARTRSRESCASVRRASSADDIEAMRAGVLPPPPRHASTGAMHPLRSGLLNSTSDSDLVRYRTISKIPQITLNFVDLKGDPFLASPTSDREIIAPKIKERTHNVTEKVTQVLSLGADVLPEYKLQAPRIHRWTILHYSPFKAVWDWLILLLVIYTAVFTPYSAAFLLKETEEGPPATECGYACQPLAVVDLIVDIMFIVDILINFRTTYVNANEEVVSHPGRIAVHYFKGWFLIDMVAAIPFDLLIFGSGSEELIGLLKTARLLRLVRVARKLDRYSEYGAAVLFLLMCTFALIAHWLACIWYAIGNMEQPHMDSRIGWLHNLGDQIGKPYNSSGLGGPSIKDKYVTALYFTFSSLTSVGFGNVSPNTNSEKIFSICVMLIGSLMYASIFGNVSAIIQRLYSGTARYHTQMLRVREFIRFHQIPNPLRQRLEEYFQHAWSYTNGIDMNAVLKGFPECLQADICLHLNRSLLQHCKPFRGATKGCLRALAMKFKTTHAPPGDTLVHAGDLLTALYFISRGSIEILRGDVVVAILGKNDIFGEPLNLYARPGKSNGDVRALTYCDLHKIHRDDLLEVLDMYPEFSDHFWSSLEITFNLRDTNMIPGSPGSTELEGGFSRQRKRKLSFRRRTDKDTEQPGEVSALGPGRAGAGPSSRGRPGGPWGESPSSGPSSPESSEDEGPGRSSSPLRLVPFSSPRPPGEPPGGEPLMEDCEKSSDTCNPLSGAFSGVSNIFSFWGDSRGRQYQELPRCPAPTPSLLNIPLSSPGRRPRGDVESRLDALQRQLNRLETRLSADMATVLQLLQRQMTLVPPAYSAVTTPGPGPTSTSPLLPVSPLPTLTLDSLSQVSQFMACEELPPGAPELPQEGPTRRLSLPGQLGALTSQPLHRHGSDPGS
smiles,measurement,setting,value
"Cn1c(=O)ccc2ccc(F)c(CCNC[C@H]3CN(c4cnc5c(n4)NC(=O)CO5)C(=O)O3)c21 [BWC0977, 6-[(5S)−5-[[[2-(7-Fluoro-1,2-dihydro-1-methyl-2-oxo-8-quinolinyl)ethyl]amino]methyl]−2-oxo-3-oxazolidinyl]−2H-pyrazino[2,3-b]−1,4-oxazin-3(4H)-one]",MIC90,Pseudomonas aeruginosa; [24],1 mg/L
same,MIC,"Pseudomonas aeruginosa; NCTC13921, P. aeruginosa NCTC 13921",0.25 mg/L
same,MIC,Pseudomonas aeruginosa; [25],0.25 mg/L
same,MIC90,[1],0.25 mg/L
same,IC50,hERG,49.7 µM
same,spontaneous resistance frequency,[2],< 10^−9
same,increase in QTc,"Dog cardiovascular study; 1-hour infusion of 30 or 60 mg/kg, within 3−6 h",4 to 11 ms
same,heart rate,Dog cardiovascular study; 30 and 60 mg/kg,notable increase in heart rate
same,BSEP substrate / inhibitor status,[3],neither a substrate nor an inhibitor
same,MIC90,Morganella morganii,1 mg/L
same,MIC90,Morganella morganii; Morganella morganii,1 mg/L
same,MIC90,Citrobacter spp.,1 mg/L
same,"clearance predicted from CLint, % of liver blood flow (LBF)",[4],< 30%
same,predicted human CL,[5],20.17 L/h
same,predicted human CLD2,[5],1.002 L/h
same,predicted human V1,[5],40.84 L
same,predicted human V2,[5],23.13 L
same,dose-ranging efficacy (bacterial burden),K. pneumoniae [6],excellent dose-response
same,"clearance predicted from CLint, % of liver blood flow (LBF)",[7],< 30%
same,"clearance predicted from CLint, % of liver blood flow (LBF)",[8],< 30%
same,MIC90,"Acinetobacter baumannii; IHMA/CARB-X MDR clinical isolates 2019, N=298",1 mg/L
same,MIC,Acinetobacter baumannii; [25],0.06 mg/L
same,MIC,"Escherichia coli; Escherichia coli, read-out: median MIC, panel of ATCC strains",0.03 mg/L
same,MIC90,Escherichia coli; [24],0.5 mg/L
same,MIC90,Proteus spp.,0.5 mg/L
same,result in Cerep-88 screen,[9],hits
same,in vitro killing kinetics,P. aeruginosa [10],significant bactericidal activity
same,dose-response efficacy,P. aeruginosa [11],excellent bactericidal dose-response
same,dose-response efficacy,K. pneumoniae [12],excellent bactericidal dose-response
same,total dose observed unchanged in the bile,[13],about 1.5%
same,reversibility of AChE inhibition,[14],rapidly reversed
same,MIC,Enterococcus faecalis,0.06 mg/L
same,VD at steady state (Vss) across the dose levels,[15]; 120-1050 mg,44.03 to 51.50 L/h
same,dose proportionality of plasma Cmax and AUC,[15]; 120-1050 mg,increased proportionally with dose
same,half-life,[15]; 120 mg,3.3 h
same,half-life,[15]; 1050 mg,8.4 h
same,MIC90,E. faecalis / E. faecium,0.06 mg/L
same,plasma protein binding,[16],94%
same,MIC90,[17],0.03 to 2 mg/L
same,dose-ranging efficacy (bacterial burden),"P. aeruginosa [18]; SC every 8 h, wild-type and MDR isolates",excellent dose-response
same,PK-PD driver of efficacy,"P. aeruginosa [18]; dose fractionation 160 mg/kg/day SC, P. aeruginosa NCTC 13921",free area-under-the-curve over MIC (fAUC/MIC) as the efficacy driver
same,dose-ranging efficacy (bacterial burden),E. coli [19],excellent dose-response
same,dose-response efficacy,E. coli [20],excellent bactericidal dose-response
same,dose-response efficacy,A. baumannii [21],excellent bactericidal dose-response
same,tolerability,[22],generally well tolerated
same,dose-ranging efficacy (bacterial burden),A. baumannii [23],excellent dose-response
same,P-gp substrate status,P-glycoprotein (P-gp),substrate
same,systemic adverse events,MAD study C002-2023-01,no systemic adverse events
same,infusion site finding on ultrasound,MAD study C002-2023-01; 12/14 and 14/14 doses,small non-occlusive thrombus proximal to the infusion site in both volunteers
same,metabolism by CYP3A4 in reaction phenotyping assay,CYP3A4,80%
same,MIC,"Staphylococcus aureus; Staphylococcus aureus, read-out: median MIC",0.01 mg/L
same,MIC90,"Staphylococcus aureus; global panel, N=560, including MRSA",0.03 mg/L
same,MIC90,Klebsiella pneumoniae; [24],2 mg/L
same,MIC,"Klebsiella pneumoniae; Klebsiella pneumoniae, read-out: median MIC, panel of ATCC strains",0.03 mg/L
same,MIC90,"Enterobacter cloacae; IHMA/CARB-X MDR clinical isolates 2019, N=152",2 mg/L
same,MIC,Enterobacter cloacae; [25],0.06 mg/L
